Results taken from paper PMC4024383 (European journal of medicinal chemistry, 2014).

Columns and labels:
[1] = test system: Src kinase; test: Src radioactive kinase assay; conditions: ratio of IC50s
[2] = molecular target: recombinant PfCDPK4 (Plasmodium falciparum, UniProt Q8IBS5); test: PfCDPK4 luminescence-based; assay type: biochemical; conditions: for fold more potent against PfCDPK4 than PfCDPK1: ratio of IC50s
[3] = molecular target: T1, Abl tyrosine kinase (Homo sapiens, UniProt P00519); test: Abl radioactive kinase assay; assay type: biochemical
T1 sequence (P00519 229-512 limits assumed): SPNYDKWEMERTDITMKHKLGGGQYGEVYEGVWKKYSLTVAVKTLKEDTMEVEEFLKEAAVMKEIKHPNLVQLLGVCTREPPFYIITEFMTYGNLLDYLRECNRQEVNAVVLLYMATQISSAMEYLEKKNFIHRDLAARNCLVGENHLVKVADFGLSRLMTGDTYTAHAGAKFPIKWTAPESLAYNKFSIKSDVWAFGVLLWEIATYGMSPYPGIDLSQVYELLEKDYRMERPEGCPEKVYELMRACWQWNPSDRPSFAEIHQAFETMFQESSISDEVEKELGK

[4] = test system: P. falciparum gametocyte exflagellation; test: P. falciparum exflagellation assay; assay type: cell-based; conditions: Plasmodium falciparum, read-out: P. falciparum exflagellation inhibition EC50
[5] = Human cell growth inhibition assay; assay type: cell-based; conditions: HepG2 cells (liver)
[6] = Human cell growth inhibition assay; assay type: cell-based; conditions: CRL-8155 cells (lymphocytic)
[7] = test system: PfCDPK1; test: PfCDPK1 enzymatic assay; assay type: biochemical, Plasmodium falciparum; conditions: ratio of IC50s

recombinant PfCDPK4, sequence (Q8IBS5 whole entry): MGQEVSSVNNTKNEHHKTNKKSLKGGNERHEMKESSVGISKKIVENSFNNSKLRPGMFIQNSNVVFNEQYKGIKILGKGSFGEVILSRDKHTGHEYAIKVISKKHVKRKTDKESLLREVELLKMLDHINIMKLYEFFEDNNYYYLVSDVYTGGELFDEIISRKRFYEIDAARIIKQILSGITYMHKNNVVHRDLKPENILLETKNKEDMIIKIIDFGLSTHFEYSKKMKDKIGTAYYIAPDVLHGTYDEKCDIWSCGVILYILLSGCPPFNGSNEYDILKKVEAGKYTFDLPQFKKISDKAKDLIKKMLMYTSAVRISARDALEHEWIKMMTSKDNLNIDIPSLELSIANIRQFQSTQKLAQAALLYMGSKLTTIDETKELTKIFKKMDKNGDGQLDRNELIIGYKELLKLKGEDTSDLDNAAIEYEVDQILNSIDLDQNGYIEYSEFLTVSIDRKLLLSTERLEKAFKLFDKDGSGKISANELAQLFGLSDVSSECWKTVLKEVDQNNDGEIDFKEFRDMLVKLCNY

Row | Structure (SMILES) | IC50 [2] [nM] | EC50 [4] [nM] | GI50 [5] [nM] | GI50 [6] [nM] | other results
1 | CCOc1ccc2cc(-c3nn(CC4CNC4)c4ncnc(N)c34)ccc2c1 [17g, 1-(azetidin-3-ylmethyl)-3-(6-ethoxynaphthalen-2-yl)-1H-pyrazolo[3,4-d]pyrimidin-4-amine] | – | – | – | – | selectivity for PfCDPK4 over Src [1]: greater than 1300 fold
2 | CCOc1ccc2cc(-c3nn(CC(C)C)c4ncnc(N)c34)ccc2c1 [17q, 3-(6-ethoxynaphthalen-2-yl)-1-isobutyl-1H-pyrazolo[3,4-d]pyrimidin-4-amine] | 14 | < 40 | > 30000 | > 30000 | fold more potent against PfCDPK4 than i-Pr analog 17a ([2]; relative to 17a): more than 30 fold; IC50 [3]: 2700 nM
3 | CCOc1ccc2cc(-c3nn(C(C)C)c4ncnc(N)c34)ccc2n1 [30a, 3-(2-ethoxyquinolin-6-yl)-1-isopropyl-1H-pyrazolo[3,4-d]pyrimidin-4-amine] | < 20 | – | – | – | fold more potent against PfCDPK4 than PfCDPK1 [2]: > 5 fold
4 | CCOc1ccc2cc(-c3nn(CC(C)(C)CO)c4ncnc(N)c34)ccc2n1 [30u, 3-(4-amino-3-(2-ethoxyquinolin-6-yl)-1H-pyrazolo[3,4-d]pyrimidin-1-yl)-2,2-dimethylpropan-1-ol] | 4 | < 40 | > 30000 | > 30000 | IC50 [3]: > 10000 nM
5 | CCOc1ccc2cc(-c3nn(C(C)C)c4ncnc(N)c34)cc(C)c2n1 [31a, 3-(2-ethoxy-8-methylquinolin-6-yl)-1-isopropyl-1H-pyrazolo[3,4-d]pyrimidin-4-amine] | – | – | – | – | fold more potent against PfCDPK4 than PfCDPK1 [2]: > 5 fold
6 | CC(C)n1nc(-c2ccc3nc(OCc4ccccc4)ccc3c2)c2c(N)ncnc21 [33a, 3-(2-(benzyloxy)quinolin-6-yl)-1-isopropyl-1H-pyrazolo[3,4-d]pyrimidin-4-amine] | – | – | – | – | fold more potent against PfCDPK1 than PfCDPK4 [7]: > 3 fold
7 | Nc1ncnc2c1c(-c1ccc3cc(OC4CC4)ccc3c1)nn2CC1CCNCC1 [37j, 3-(6-cyclopropoxynaphthalen-2-yl)-1-(piperidin-4-ylmethyl)-1H-pyrazolo[3,4-d]pyrimidin-4-amine] | 2 | < 40 | > 30000 | > 30000 | –
